Experimental data from US10124004B2, “Pyrido[3,4-d]pyrimidine derivative and pharmaceutically acceptable salt thereof” (Teijin Pharma Limited, priority 2015, dated 2018).
pIC50: −log10 of the molar value. Where two headings read alike, the source gives them in different places.

Tests used:
CDK2/cyclin A2 = target: T1, CDK2/cyclin A2 (Homo sapiens, UniProt P24941); experiment: Human CDK2/cyclin A2 inhibitory activity (QS S Assist CDK2/Cyclin A2_FP Kit, IMAP fluorescence polarization); format: biochemical
T1 construct: purchased Carna Biosciences, Inc. QS S Assist CDK2/Cyclin A2_FP Kit
Experimental: Human CDK2/Cyclin A^2 Inhibitory Activity
Each compound was analyzed for CDK2/cyclin A2 inhibitory activity with an assay kit (QS S Assist CDK2/Cyclin A2_FP Kit, available from Carna Biosciences, Inc.). This assay kit determines kinase activity on the basis of the IMAP technology by Molecular Devices. Specifically, the kinase activity is determined through quantification of a variation in fluorescent polarization caused by binding of a kinase-phosphorylated fluorescent substance to an IMAP-binding reagent.
An assay buffer was prepared by 10-fold dilution of the 10× assay buffer attached to the kit with distilled water, and each solution was prepared with the assay buffer. The assay buffer contained 20 mM HEPES (pH 7.4), 0.01% Tween 20, and 2 mM dithiothreitol. A test compound solution was prepared by dilution of the test compound with dimethyl sulfoxide (DMSO) to a concentration 100 times higher than the final concentration and then 25-fold dilution with the assay buffer to a concentration four times higher than the final concentration. An ATP/substrate/Metal solution was prepared by five-fold dilution of the 5×ATP/substrate/Metal solution attached to the kit with the assay buffer. An enzyme solution was prepared by dilution of the CDK2/cyclin A2 attached to the kit with the assay buffer to a concentration twice higher than the final concentration (final concentration of CDK2/cyclin A2: 2.5 ng/well). A detection reagent was prepared by five-fold dilution of 5×IMAP-binding buffer A with distilled water and 400-fold dilution of the IMAP-binding reagent with the diluted buffer.
The test compound solution (5 μL/well) and the ATP/substrate/Metal solution (5 μL/well) were added to a 384-well plate, and the enzyme solution or the assay buffer (10 μL/well) was added to the plate (total amount of the reaction mixture: 20 μL/well) for initiation of enzymatic reaction. […] The reaction was performed at room temperature for 60 minutes, and the detection reagent (60 μL/well) was then added to the plate, followed by further reaction for 30 minutes at room temperature under light shielding conditions. Subsequently, fluorescent polarization was determined with a microplate reader at an excitation wavelength of 485 nm and an emission wavelength of 535 nm.
The percent inhibition of enzyme activity was calculated for each test compound (note: enzyme activity=100% in the case of addition of the enzyme solution and addition of DMSO instead of the test compound solution, whereas enzyme activity=0% in the case of addition of the assay buffer instead of the enzyme solution and addition of DMSO instead of the test compound solution). The percent inhibition of enzyme activity was fitted to a dose-response curve, to determine a 50% inhibitory concentration against CDK2/cyclin A2.
In each table, “+++” corresponds to IC50<10 nM, “++” 10 nM≤IC50<100 nM, and “+” 100 nM≤IC50.

CDK4/cyclin D3 = target: T2, CDK4/cyclin D3 (Homo sapiens, UniProt P11802); experiment: Human CDK4/cyclin D3 inhibitory activity (QS S Assist CDK4/Cyclin D3_FP Kit, IMAP fluorescence polarization); format: biochemical
T2 construct: purchased Carna Biosciences, Inc. QS S Assist CDK4/Cyclin D3_FP Kit
T2 sequence (P11802 whole entry): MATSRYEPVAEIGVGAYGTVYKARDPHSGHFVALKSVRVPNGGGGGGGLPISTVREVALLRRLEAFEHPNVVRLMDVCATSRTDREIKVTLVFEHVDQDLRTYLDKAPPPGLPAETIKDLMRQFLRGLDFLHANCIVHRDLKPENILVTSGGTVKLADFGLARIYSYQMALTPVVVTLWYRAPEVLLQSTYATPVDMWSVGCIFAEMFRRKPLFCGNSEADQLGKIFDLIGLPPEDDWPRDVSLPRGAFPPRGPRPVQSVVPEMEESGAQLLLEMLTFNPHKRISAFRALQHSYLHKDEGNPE
T2 sequence (P30281 whole entry partner): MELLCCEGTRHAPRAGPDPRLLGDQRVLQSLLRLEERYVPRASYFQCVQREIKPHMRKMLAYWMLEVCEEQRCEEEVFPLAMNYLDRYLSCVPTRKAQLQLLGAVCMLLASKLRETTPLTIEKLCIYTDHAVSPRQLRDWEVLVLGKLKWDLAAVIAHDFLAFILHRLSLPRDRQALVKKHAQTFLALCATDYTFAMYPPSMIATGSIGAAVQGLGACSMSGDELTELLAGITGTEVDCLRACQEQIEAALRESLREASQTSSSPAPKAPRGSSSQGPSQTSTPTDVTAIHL
Procedure, shortened: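 Percent inhibition, relative to DMSO with and without enzyme, was curve-fitted to give IC50 from polarization (ex 485, em 535 nm). The 45-min room-temperature reaction used 12.5-25 ng/well enzyme, kit ATP/substrate/metal mix, and HEPES pH 7.4 buffer with Tween20 and DTT, followed by 30-min IMAP binding in the dark.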

[1] = Human CDK2/cyclin A2 inhibitory activity, read-out: CDK2 Activity symbol
[2] = Human CDK4/cyclin D3 inhibitory activity, read-out: CDK4 Activity symbol
[3] = 50% inhibitory concentration against CDK2/cyclin A2, given as class symbol
[4] = 50% inhibitory concentration against CDK4/cyclin D3, given as class symbol

pIC50 (CDK2/cyclin A2; [1]) | pIC50 (CDK4/cyclin D3; [2]) | pIC50 (CDK2/cyclin A2; [3]) | pIC50 (CDK4/cyclin D3; [4]) | Structure (SMILES)
≤ 7.00 | > 8.00 |  |  | CC(C)Nc1nc(C(C)O)cc2cnc(Nc3ccc(N4CCCC(O)C4)nn3)nc12 (single isomer, unassigned) [Compound 581]
 |  | ≤ 7.00 | > 8.00 | CC(C)Nc1nc(C2CCCO2)cc2cnc(Nc3ccc(N4CCNCC4)nn3)nc12 (single isomer, unassigned) [Compound 713]
 |  | ≤ 7.00 | ≤ 7.00 | CC(C)Nc1nc(C2CCCO2)cc2cnc(Nc3ccc(N4CCNCC4)nn3)nc12 (single isomer, unassigned) [Compound 714]
 |  | ≤ 7.00 | > 8.00 | CC(C)Nc1nc(C(C)O)cc2cnc(Nc3ccc(N4CCC(O)C5(CC5)C4)nn3)nc12 (single isomer, unassigned) [Compound 724]
 |  | ≤ 7.00 | > 8.00 | CC(C)Nc1nc(C(C)O)cc2cnc(Nc3ccc(N4CCC(O)C5(CC5)C4)nn3)nc12 (single isomer, unassigned) [Compound 725]
 |  | ≤ 7.00 | > 8.00 | CC(C)Nc1nc(C2CCCO2)cc2cnc(Nc3ccc(CN4CCNCC4)cn3)nc12 (single isomer, unassigned) [Compound 729]
 |  | ≤ 7.00 | 7.00 to 8.00 | CC(C)Nc1nc(C2CCCO2)cc2cnc(Nc3ccc(CN4CCNCC4)cn3)nc12 (single isomer, unassigned) [Compound 730]
 |  | ≤ 7.00 | > 8.00 | CC(C)Nc1nc(C(C)O)cc2cnc(Nc3ccc(C4CNCCO4)cn3)nc12 (single isomer, unassigned) [Compound 735]
 |  | ≤ 7.00 | > 8.00 | CC(C)Nc1nc(C(C)O)cc2cnc(Nc3ccc(C4CNCCO4)cn3)nc12 (single isomer, unassigned) [Compound 736]
 |  | ≤ 7.00 | > 8.00 | CC(C)Nc1nc(C2CCOC2)cc2cnc(Nc3ccc(N4CCNCC4=O)cn3)nc12 (single isomer, unassigned) [Compound 773]
 |  | ≤ 7.00 | 7.00 to 8.00 | CC(C)Nc1nc(C2CCOC2)cc2cnc(Nc3ccc(N4CCNCC4=O)cn3)nc12 (single isomer, unassigned) [Compound 774]
 |  | ≤ 7.00 | > 8.00 | CC(C)Nc1nc(C(C)O)cc2cnc(Nc3ccc(N4CCNCC4C(F)(F)F)cn3)nc12 (single isomer, unassigned) [Compound 775]
 |  | ≤ 7.00 | > 8.00 | CC(C)Nc1nc(C(C)O)cc2cnc(Nc3ccc(N4CCNCC4C(F)(F)F)cn3)nc12 (single isomer, unassigned) [Compound 776]
 |  | 7.00 to 8.00 | > 8.00 | CC(C)Nc1nc(C(C)O)cc2cnc(Nc3ccc(N4CCN(C(C)CO)CCC4=O)cn3)nc12 (single isomer, unassigned) [Compound 809]
 |  | ≤ 7.00 | > 8.00 | CC(C)Nc1nc(C(C)O)cc2cnc(Nc3ccc(N4CCN(C(C)CO)CCC4=O)cn3)nc12 (single isomer, unassigned) [Compound 810]
 |  | ≤ 7.00 | 7.00 to 8.00 | CC(C)Nc1nc(C(C)O)cc2cnc(Nc3ccc(OC4CCC(C(=O)O)CC4)cn3)nc12 (single isomer, unassigned) [Compound 831]
 |  | ≤ 7.00 | 7.00 to 8.00 | CC(C)Nc1nc(C(C)O)cc2cnc(Nc3ccc(OC4CCC(C(=O)O)CC4)cn3)nc12 (single isomer, unassigned) [Compound 832]
 |  | ≤ 7.00 | > 8.00 | CC(C)Nc1nc(C(C)O)cc2cnc(Nc3ccc(C4COCCN4)cn3)nc12 (single isomer, unassigned) [Compound 865]
 |  | ≤ 7.00 | > 8.00 | CC(C)Nc1nc(C(C)O)cc2cnc(Nc3ccc(C4COCCN4)cn3)nc12 (single isomer, unassigned) [Compound 866]
 |  | 7.00 to 8.00 | > 8.00 | CNCCOc1ccc(Nc2ncc3cc(C(C)O)nc(NC4(C)CCCOC4)c3n2)nc1 (single isomer, unassigned) [Compound 869]

pIC50 (CDK2/cyclin A2; [1]) | pIC50 (CDK4/cyclin D3; [2]) | pIC50 (CDK2/cyclin A2; [3]) | pIC50 (CDK4/cyclin D3; [4]) | Structure (SMILES)
 |  | ≤ 7.00 | > 8.00 | CNCCOc1ccc(Nc2ncc3cc(C(C)O)nc(NC4(C)CCCOC4)c3n2)nc1 (single isomer, unassigned) [Compound 870]
 |  | ≤ 7.00 | > 8.00 | Cc1nc(Nc2ncc3cc(C4CCOC4)nc(NC(C)C)c3n2)ccc1N1CCNCC1=O (single isomer, unassigned) [Compound 875]
 |  | ≤ 7.00 | > 8.00 | Cc1nc(Nc2ncc3cc(C4CCOC4)nc(NC(C)C)c3n2)ccc1N1CCNCC1=O (single isomer, unassigned) [Compound 876]
 |  | ≤ 7.00 | > 8.00 | c1cc(N2CCNCC2)nnc1Nc1ncc2cc(C3CCOC3)nc(N[C@H]3CCCOC3)c2n1 (single isomer, unassigned) [Compound 939]
 |  | ≤ 7.00 | > 8.00 | c1cc(Nc2ncc3cc(C4CCOC4)nc(N[C@H]4CCCOC4)c3n2)ncc1CN1CCNCC1 (single isomer, unassigned) [Compound 940]
 |  | ≤ 7.00 | > 8.00 | c1cc2c(nc1Nc1ncc3cc(C4CCOC4)nc(N[C@H]4CCCOC4)c3n1)CCNC2 (single isomer, unassigned) [Compound 942]
 |  | ≤ 7.00 | 7.00 to 8.00 | c1cc2c(nc1Nc1ncc3cc(C4CCOC4)nc(NC4CCCOC4)c3n1)CCNC2 (single isomer, unassigned) [Compound 943]
 |  | ≤ 7.00 | > 8.00 | CC(C)Nc1nc(C(C)O)cc2cnc(Nc3ccc(N4CCNC(C(F)(F)F)C4)nn3)nc12 (single isomer, unassigned) [Compound 989]
 |  | ≤ 7.00 | > 8.00 | CC(C)Nc1nc(C(C)O)cc2cnc(Nc3ccc(N4CCNC(C(F)(F)F)C4)nn3)nc12 (single isomer, unassigned) [Compound 990]
 |  | ≤ 7.00 | ≤ 7.00 | CCCNc1nc(C2CCCO2)cc2cnc(Nc3ccc(N4CCNCC4)cn3)nc12 (single isomer, unassigned) [Compound 1025]
 |  | ≤ 7.00 | 7.00 to 8.00 | CCCNc1nc(C2CCCO2)cc2cnc(Nc3ccc(N4CCNCC4)cn3)nc12 (single isomer, unassigned) [Compound 1026]
 |  | ≤ 7.00 | > 8.00 | CCNc1nc([C@@H](C)O)cc2cnc(Nc3ccc(CN4CCN(C(C)CO)CC4)cn3)nc12 (single isomer, unassigned) [Compound 1088]
 |  | ≤ 7.00 | > 8.00 | CCNc1nc([C@@H](C)O)cc2cnc(Nc3ccc(CN4CCN(C(C)CO)CC4)cn3)nc12 (single isomer, unassigned) [Compound 1089]
 |  | ≤ 7.00 | > 8.00 | CCCNc1nc([C@@H](C)O)cc2cnc(Nc3ccc(CN4CCN(C(C)CO)CC4)cn3)nc12 (single isomer, unassigned) [Compound 1206]
 |  | ≤ 7.00 | > 8.00 | CCCNc1nc([C@@H](C)O)cc2cnc(Nc3ccc(CN4CCN(C(C)CO)CC4)cn3)nc12 (single isomer, unassigned) [Compound 1207]
7.00 to 8.00 | > 8.00 |  |  | FC(F)c1cc2cnc(Nc3ccc(N4CCNCC4)cn3)nc2c(NC2CCCC2)n1 [Compound 1]
7.00 to 8.00 | > 8.00 |  |  | FC(F)c1cc2cnc(Nc3ccc(N4CCNCC4)cn3)nc2c(N[C@H]2CCCNC2)n1 [Compound 2]
 |  | ≤ 7.00 |  | CCCNc1nc([C@@H](C)O)cc2cnc(Nc3ccc(CN4CCCC(O)C4)cn3)nc12 (stereo partly shown) [Compound 1082]
 |  | ≤ 7.00 |  | CC(C)Nc1nc([C@@H](C)O)cc2cnc(Nc3ccc(N4CCN(C(=O)C5CCCO5)CC4)nn3)nc12 (stereo partly shown) [Compound 1184]
